Consider six molecules from paper PMC3989318, “Strong Vaccine-Induced CD8 T-Cell Responses Have Cytolytic Function in a Chimpanzee Clearing HCV Infection” (PLoS ONE, 2014).

pIC50: −log10 of the molar value. Where two headings read alike, the source gives them in different places. Where no end group is shown, it is not given here.

The target of assay [1] is T1, Patr-A*03∶01 (Pan troglodytes, UniProt P13748).
T1 construct: expressed in transfected cells; host or cells: K562 or 721.221 cells
Briefly: cell-based peptide-binding-competition-assay, Patr-A*03∶01. Details: species or system chimpanzee (Pan troglodytes). Conditions: competition with 500nM biotinylated indicator peptide […], overnight, europium-streptavidin DELFIA. The protocol:
A cell-based peptide-binding-competition-assay was performed as previously described. In this assay, peptides are tested for binding to transfected cell lines expressing chimpanzee class-I molecules, while competing with a biotin-labeled reference-peptide. […] After overnight incubation, excess peptide was removed by washing and indicator-peptide bound to cells was quantified using the DELFIA-system and the Victor3 1420 multilabel counter (Perkin Elmer). The binding affinity of the indicator peptide was verified using its unlabeled peptide as competitor, this is referred to as standardized competitor [15].

For another assay, the system named is expanded CD8 T-cells. Nature of the assay: intracellular cytokine staining of expanded CD8 T-cells after peptide restimulation. The assay is classed as cell-based, chimpanzee (Pan troglodytes). Conditions: two weeks after the final vaccine boost. From the text:
For stimulation and expansion of HCV-specific cells, two different NS3-peptide-pools were compiled: NS3vaccine was a mixture of 15-mer peptides with 11 amino acids overlap, covering the NS3-sequence of the vaccine constructs; NS3challenge was a mixture of 15-mer peptides with 11 amino acids overlap covering the NS3-variants observed in the inoculum. Identification of NS3 epitopes within NS3 was first performed via the matrix setup and confirmed in a second assay using individual peptides (peptide-sequences are listed in Table S1).
Cells isolated before infection were expanded and tested for response against peptide-pool NS3vaccine, whereas cells isolated after challenge were tested against peptide-pool NS3challenge. PBMCs isolated at the day of challenge were stimulated in two separate cultures with either NS3vaccine or NS3challenge. […]
The cytokine production profile of HCV-specific T-cell lines was determined by intracellular cytokine staining (ICS) after restimulation with NS3-peptides. […] Cell staining was analyzed on a FACSAria (BD Bioscience) and DIVA software Version 6.1.1.

Assay [2] addresses T1, Patr-A*03∶01. Also on record: method as in PMID 20696916. Conditions: unlabeled indicator peptide as competitor; ref [15]; read-out: IC50 of standardized competitor; cited from earlier work.
[3] abbreviates: MHC class I transfected K562 or 721.221 cells, regression curves of three independent experiments.

The term pIC50 denotes the negative decadic logarithm of the IC50, by convention in mol/L. At Patr-A*03∶01 [1] (setting [3]), `CC(C)C[C@H](NC(=O)[C@@H](NC(=O)[C@H](C)NC(=O)[C@H](C)N)[C@@H](C)O)C(=O)NCC(=O)N[C@@H](Cc1ccccc1)C(=O)NCC(=O)N[C@@H](C)C(=O)N[C@@H](Cc1ccc(O)cc1)C(=O)O` gave a pIC50 of 6.70.

Take `CSCC[C@H](NC(=O)[C@H](Cc1ccc(O)cc1)NC(=O)[C@H](C)NC(=O)CNC(=O)[C@H](Cc1ccccc1)NC(=O)CNC(=O)[C@@H](N)CC(C)C)C(=O)N[C@@H](CO)C(=O)N[C@@H](CCCCN)C(=O)O`: the pIC50 on Patr-A*03∶01 [1] (setting [3]) was 7.52.

Consider “IRTGVRTITTGGPIT [p64, 15-mer NS3 peptide]”, for which the “cytokine induction in expanded CD8 T-cells” value in the assay with expanded CD8 T-cells (Vac1) is “did not induce cytokine production”; in the assay on expanded CD8 T-cells (Vac2), “moderate dual IFNγ/IL-2 and IFNγ/TNFa cytokine production”.

KGGLRPRAG [reference compound] showed a pIC50 at Patr-A*03∶01 [1] (transfected K562 or 721.221 cells, two individual experiments) of 5.09.

The molecule VAATLGFGAYMSKAH [p59] had a pIC50 on Patr-A*03∶01 [1] (setting [3]) of 7.22.

Take “standardized competitor peptide of Patr-A*03∶01: unlabeled peptide of the A*03∶01 indicator peptide, used as competitor (ATALECVYK; Unlabeled: no biotin on Cys6, which carries biotin in the indicator form)”: in the assay with Patr-A*03∶01 [2], the pIC50 is 5.82.
